Test results from patent US4419349A (priority 1978, dated 1983).

Columns and labels:
Type in all cases: cell-based
mouse spleen cells = test: IF induction in vitro, mouse (Table 6); details: control 1.0 μg/ml
Experimental: (§1) A spleen cell suspension (10^7 cells/ml) was prepared by the method of hereinafter described Experiment 1 using an Eagle MEM medium (commercial product of Nissui Seiyaku K.K., Tokyo) containing a 10% calf serum (which was replaced by a 10% fetal cattle serum in the cases of human tests), each of which fraction (1 ml) was added with a given concentration of the sample of the active substance and incubated at a given temperature. The cultured liquor was centrifuged to separate a supernatant which was used for determining the IF activity induced. In the case of humans, the fresh spleen was collected from a person (adult deceased by external wounds) and used for the preparation of a leucocytes suspension on each occasion, and also blood was collected from the vein at the upper arm of a person (adult), from which the serum was separated to use for the preparation of a serum suspension on each occasion.
(§2) The IF activities were determined by using the cells shown in Table 5 in a similar manner to that hereinafter described in Experiment 1.

rabbit spleen cells = test system: rabbit spleen cells
human spleen cells = test: IF induction in vitro, human spleen (Table 6); details: control 1.0 μg/ml
Experimental: as §1, §2

Poly I:C
IF activity in vitro (Control) (mouse spleen cells): 120
IF activity in vitro (Control) (rabbit spleen cells): 220
IF activity in vitro (Control) (human spleen cells): < 5
